Measurements from ChEMBL document CHEMBL1201862, “PubChem BioAssay data set” (2004).
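Growth conditions: 96-well plates. Treatment: test compound, 48 hours, 5 concentrations. Analysis: linear interpolation between bracketing concentrations; unreached endpoints set to highest concentration. GI50 is the concentration that inhibits growth by half.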 The source made the active and inactive calls. No stated cut-off is given here; in the data, active = GI50 up to about 1.1 µM and inactive = higher.

Assays:
Assay in all cases: DTP human tumour cell line panel, 48 h
HL-60 = system: HL-60
RPMI-8226 = system: RPMI-8226
BT-549 = system: BT-549
SK-MEL-2 = system: SK-MEL-2
K562 = system: K562
T47D = system: T47D
UACC-257 = system: UACC-257
U-251 = system: U-251
SF-268 = system: SF-268
TK-10 = system: TK-10
NCI-H460 = system: NCI-H460
NCI-H226 = system: NCI-H226
OVCAR-3 = system: OVCAR-3
UACC-62 = system: UACC-62
HT-29 = system: HT-29
SNB-19 = system: SNB-19
LOX IMVI = system: LOX IMVI

Compound | GI50 (HL-60) | GI50 (RPMI-8226) | GI50 (BT-549) | GI50 (SK-MEL-2) | GI50 (K562) | GI50 (T47D) | GI50 (UACC-257) | GI50 (U-251) | GI50 (SF-268) | GI50 (TK-10) | GI50 (NCI-H460) | GI50 (NCI-H226) | GI50 (OVCAR-3) | GI50 (UACC-62) | GI50 (HT-29) | GI50 (SNB-19) | GI50 (LOX IMVI)
CN(C)CC1CCC/C(=C\c2ccc(Cl)c(Cl)c2)C1=O (configuration not stated) | 1.97 µM (inactive) | 0.205 µM (active) | 2.33 µM (inactive) | 6.52 µM (inactive) | 1.93 µM (inactive) | 2.31 µM (inactive) | 7.71 µM (inactive) | 2.65 µM (inactive) | 4.04 µM (inactive) | 3.31 µM (inactive) | 9.2 µM (inactive) | 11.4 µM (inactive) | 4.31 µM (inactive) | 3.61 µM (inactive) | 8.45 µM (inactive) | 7.23 µM (inactive) | 
COc1cccc2c1C(=O)c1c(O)c3c(c(O)c1C2=O)C[C@@](O)(C(=O)CO)C[C@@H]3OC1CC2C(OCN3CN2COC2C(C)OC(O[C@H]4C[C@](O)(C(=O)CO)Cc5c(O)c6c(c(O)c54)C(=O)c4c(OC)cccc4C6=O)CC23)C(C)O1 (some centres not stated) | 0.0258 µM (active) | 0.0184 µM (active) | 0.157 µM (active) | 0.0362 µM (active) | 0.0684 µM (active) | 0.0167 µM (active) | 0.05 µM (active) | 0.0186 µM (active) | 0.0319 µM (active) | 0.0412 µM (active) | 0.00433 µM (active) | 0.0665 µM (active) | 0.112 µM (active) | 0.0345 µM (active) | 0.0428 µM (active) | 0.0272 µM (active) | 0.0134 µM (active)
CN(C)c1ccc(/C=C(\NC(=O)c2ccccc2)C(=O)Nc2cccc(C(=O)NCCCO)c2)cc1 | > 100 µM (inactive) | > 100 µM (inactive) | > 100 µM (inactive) | > 100 µM (inactive) | > 100 µM (inactive) | > 100 µM (inactive) | > 100 µM (inactive) | > 100 µM (inactive) | > 100 µM (inactive) | > 100 µM (inactive) | > 100 µM (inactive) | > 100 µM (inactive) | > 100 µM (inactive) | > 100 µM (inactive) | > 100 µM (inactive) | > 100 µM (inactive) | > 100 µM (inactive)
CCn1c(SCC(=O)NNC(=S)Nc2ccc(F)cc2)nc2ccccc2c1=O | > 100 µM (inactive) | 63.5 µM (inactive) | > 100 µM (inactive) | > 100 µM (inactive) | 74.5 µM (inactive) | 57.7 µM (inactive) | > 100 µM (inactive) | > 100 µM (inactive) | 79.8 µM (inactive) | > 100 µM (inactive) | 0.472 µM (active) | > 100 µM (inactive) | > 100 µM (inactive) | 58.7 µM (inactive) | > 100 µM (inactive) | > 100 µM (inactive) | > 100 µM (inactive)
N=C(N)SC(c1ccccc1)c1ccccc1 | 17.1 µM (inactive) | 10.2 µM (inactive) | 17.6 µM (inactive) | 15 µM (inactive) | 22.4 µM (inactive) | 6.32 µM (inactive) | 14.2 µM (inactive) | 15.3 µM (inactive) | 22.6 µM (inactive) | 14.5 µM (inactive) | 16.6 µM (inactive) | 33.8 µM (inactive) | 14.2 µM (inactive) | 16 µM (inactive) | 13.3 µM (inactive) | 28.1 µM (inactive) | 15.2 µM (inactive)
C[N+]1([O-])C2CCC1CC(OC(=O)C(CO)c1ccccc1)C2 (configuration not stated) | > 100 µM (inactive) | > 100 µM (inactive) | > 66.5 µM (inactive) | > 100 µM (inactive) | > 100 µM (inactive) | > 100 µM (inactive) | > 100 µM (inactive) | > 100 µM (inactive) | > 100 µM (inactive) | > 100 µM (inactive) | > 100 µM (inactive) | > 100 µM (inactive) | > 100 µM (inactive) | > 100 µM (inactive) | > 100 µM (inactive) | > 100 µM (inactive) | > 100 µM (inactive)
O=c1c2cccnc2[nH]c2ccc3scnc3c12 | 4.86 µM (inactive) | > 10 µM (inactive) | > 10 µM (inactive) | > 10 µM (inactive) |  | > 10 µM (inactive) | > 10 µM (inactive) | > 10 µM (inactive) | > 10 µM (inactive) | 4.86 µM (inactive) | 7.01 µM (inactive) | 5.97 µM (inactive) | 4.28 µM (inactive) | > 10 µM (inactive) | 4.72 µM (inactive) | > 10 µM (inactive) | 3.36 µM (inactive)
CCOC(=O)c1c(N)sc2c1C(C(=O)OCC)CC2 (configuration not stated) | 31.5 µM (inactive) | 45.3 µM (inactive) | 72.3 µM (inactive) | > 100 µM (inactive) | 46.5 µM (inactive) | 18.2 µM (inactive) | > 100 µM (inactive) | 73.3 µM (inactive) |  | > 100 µM (inactive) | 62.1 µM (inactive) | > 100 µM (inactive) |  | 91.4 µM (inactive) | > 100 µM (inactive) | > 100 µM (inactive) | 
COc1ccc2c(c1)C(=O)CC(N)C2 (configuration not stated) | 62.7 µM (inactive) | > 100 µM (inactive) | > 100 µM (inactive) | > 100 µM (inactive) | > 100 µM (inactive) | > 100 µM (inactive) | > 100 µM (inactive) | > 100 µM (inactive) | > 100 µM (inactive) | > 100 µM (inactive) | > 100 µM (inactive) | 67.8 µM (inactive) | 88.5 µM (inactive) | 68.5 µM (inactive) | > 100 µM (inactive) | > 100 µM (inactive) | > 100 µM (inactive)
Clc1ccc2nc3c(c(-c4ccccc4)nn3-c3ccccc3)c(-c3ccccc3)c2c1 | > 100 µM (inactive) | > 100 µM (inactive) | > 100 µM (inactive) | > 100 µM (inactive) | > 100 µM (inactive) | > 100 µM (inactive) |  | > 100 µM (inactive) | > 100 µM (inactive) | > 100 µM (inactive) | > 100 µM (inactive) | > 100 µM (inactive) | > 100 µM (inactive) | > 100 µM (inactive) | > 100 µM (inactive) | > 100 µM (inactive) | > 100 µM (inactive)
Cc1ncc([N+](=O)[O-])n1CCN(C)CCCCn1ccnc1[N+](=O)[O-] | > 100 µM (inactive) | > 100 µM (inactive) | > 100 µM (inactive) | > 100 µM (inactive) | > 100 µM (inactive) | > 100 µM (inactive) | > 100 µM (inactive) | > 100 µM (inactive) | > 100 µM (inactive) | > 100 µM (inactive) | > 100 µM (inactive) | > 100 µM (inactive) | > 100 µM (inactive) | > 100 µM (inactive) | > 100 µM (inactive) | > 100 µM (inactive) | > 100 µM (inactive)
O=C(N/N=C/c1ccc(Br)cc1)N/N=C/c1ccc(Br)cc1 | 13.2 µM (inactive) | 10.6 µM (inactive) | 20.9 µM (inactive) | 75.5 µM (inactive) | 16.6 µM (inactive) | 4.38 µM (inactive) | 17.6 µM (inactive) | 6.24 µM (inactive) | 10.4 µM (inactive) | 2.44 µM (inactive) |  | 7.43 µM (inactive) | 3.81 µM (inactive) | 12.6 µM (inactive) | 11.4 µM (inactive) | 4.42 µM (inactive) | 3.98 µM (inactive)
Cc1ccc(C(=O)Nc2ccc(CP(=O)(O)O)cc2CP(=O)(O)O)cc1NC(=O)c1cccc(N)c1 | > 100 µM (inactive) | > 100 µM (inactive) | > 100 µM (inactive) | > 100 µM (inactive) | > 100 µM (inactive) | > 100 µM (inactive) | > 100 µM (inactive) | > 100 µM (inactive) | > 100 µM (inactive) | > 100 µM (inactive) | > 100 µM (inactive) | > 100 µM (inactive) | > 100 µM (inactive) | > 100 µM (inactive) | > 100 µM (inactive) |  | > 100 µM (inactive)
O=C1Cc2c(-c3cccs3)cc(-c3ccccc3)nc2-c2ccccc2N1 |  | > 100 µM (inactive) | > 100 µM (inactive) | 86.3 µM (inactive) | > 100 µM (inactive) | 26.4 µM (inactive) | > 100 µM (inactive) | > 10 µM (inactive) | 10.8 µM (inactive) | > 100 µM (inactive) | 24 µM (inactive) | 81.8 µM (inactive) | 33.4 µM (inactive) | > 100 µM (inactive) | 10.8 µM (inactive) | 47.9 µM (inactive) | 36.5 µM (inactive)
CCc1[nH]nc(C(N)=O)c1/N=N/N(C)C | 9.62 µM (inactive) | 81.5 µM (inactive) | 21.8 µM (inactive) | > 100 µM (inactive) | 1.13 µM (inactive) | 68.4 µM (inactive) | > 100 µM (inactive) | 48.3 µM (inactive) | 47.2 µM (inactive) | > 100 µM (inactive) |  | 84.1 µM (inactive) | > 100 µM (inactive) | 34.4 µM (inactive) | > 100 µM (inactive) | > 100 µM (inactive) | 43.2 µM (inactive)
CN(C)CCCOc1nc2c(c(=O)n(C)c(=O)n2C)n1C.SC1=NC=NC2=NC=NC12 |  | 0.757 µM (active) | 11.3 µM (inactive) | 6.52 µM (inactive) | 1.14 µM (inactive) | 68.9 µM (inactive) | 6 µM (inactive) | 18.1 µM (inactive) | 6.31 µM (inactive) | 0.482 µM (active) | 8.43 µM (inactive) | 2.15 µM (inactive) | 0.656 µM (active) | 1.14 µM (inactive) | 5.2 µM (inactive) | 88.5 µM (inactive) | 0.303 µM (active)
N[C@H](C(=O)O)[C@@H]1CC(Br)=NO1 | > 48.4 µM (inactive) |  | > 27 µM (inactive) | > 91.8 µM (inactive) | 20.6 µM (inactive) | > 34.1 µM (inactive) | 54.2 µM (inactive) | 10.4 µM (inactive) | 11.6 µM (inactive) | 16 µM (inactive) | 4.31 µM (inactive) | > 96.6 µM (inactive) | 16.5 µM (inactive) | 27.7 µM (inactive) | 10.1 µM (inactive) | 36.4 µM (inactive) | > 100 µM (inactive)
